Assay: excess molar enthalpy (molar enthalpy of mixing); xn = mol fraction of the nth substance listed
Conditions: 101 kPa, Liquid, Calvet calorimetry

[Bi] [bismuth] + [Cu]
Conditions	excess molar enthalpy [kcal/mol]
1073.2 K, x2 = 0.0427	0.194
1073.2 K, x2 = 0.0749	0.337
1073.2 K, x2 = 0.0819	0.358
1073.2 K, x2 = 0.1184	0.493
1073.2 K, x2 = 0.1417	0.584
1073.2 K, x2 = 0.1524	0.603
1073.2 K, x2 = 0.1852	0.697
1073.2 K, x2 = 0.2051	0.763
1073.2 K, x2 = 0.216	0.771
1073.2 K, x2 = 0.2446	0.834
1073.2 K, x2 = 0.2648	0.887
1073.2 K, x2 = 0.2722	0.891
1073.2 K, x2 = 0.2982	0.937
1073.2 K, x2 = 0.3165	0.973
1073.2 K, x2 = 0.3228	0.974
1073.2 K, x2 = 0.3461	1
1073.2 K, x2 = 0.3622	1.02
1073.2 K, x2 = 0.3683	1.02
1073.2 K, x2 = 0.3893	1.04
1073.2 K, x2 = 0.4032	1.04
1273.2 K, x2 = 0.1194	0.496
1273.2 K, x2 = 0.2184	0.84
1273.2 K, x2 = 0.2984	1.04
1273.2 K, x2 = 0.3648	1.15
1273.2 K, x2 = 0.4198	1.21
1273.2 K, x2 = 0.47	1.23
1273.2 K, x2 = 0.5122	1.24
1273.2 K, x2 = 0.5486	1.22
1273.2 K, x2 = 0.5801	1.2
1273.2 K, x2 = 0.6078	1.18
1273.2 K, x2 = 0.632	1.16
1273.2 K, x2 = 0.6535	1.13
1273.2 K, x2 = 0.673	1.1
1273.2 K, x2 = 0.6904	1.07
1273.2 K, x2 = 0.7077	1.04
1273.2 K, x2 = 0.724	1.01
1273.2 K, x2 = 0.7393	0.985
1273.2 K, x2 = 0.7532	0.956
1273.2 K, x2 = 0.7659	0.924
1273.2 K, x2 = 0.7773	0.897
1273.2 K, x2 = 0.7884	0.874
1273.2 K, x2 = 0.7985	0.859
1273.2 K, x2 = 0.8078	0.828
1273.2 K, x2 = 0.8164	0.802
1273.2 K, x2 = 0.8244	0.777
